Measured values reported in patent US9440957B2, “Compounds and compositions for modulating EGFR Activity” (Novartis AG, priority 2012, dated 2016).
Like-named read-outs stand apart in the source and are kept apart here.

Assays:
EGFR(L858R/T790M) = target: T1, EGFR(L858R/T790M) (Homo sapiens, UniProt P00533, L858R/T790M); assay: EGFR biochemical assay (HTRF), IC50 determinations
T1 construct: purchased from Carna (GST-a.a. 669-1210)
Description: All EGFR biochemical assays were carried out by HTRF method. […] The substrate peptide Biotin-TK-peptide was purchased from Cis-Bio. […] All reactions were carried out at room temperature in white ProxiPlate™ 384-well Plus plates (PerkinElmer) and were quenched with 5 μL of 0.2 M EDTA at 60 min. Five L of the detection reagents (2.5 ng PT66K and 0.05 μg SAXL per well) were added, the plates were incubated at room temperature for 1 h and then read in EnVision reader. […] For no-preincubation condition, the compounds were added to the assay solution containing ATP and peptide, and the reaction was initiated by addition of enzyme. For pre-incubation conditions, the compounds were added to the assay solution containing enzyme and peptide, and pre-incubated at room temperature for desired period of time, then the reaction was initiated by addition of ATP.

[1] = target: human EGFR WT (NIH/3T3 cells, EGF-induced) (Homo sapiens, UniProt P00533); assay: EGFR target modulation in engineered NIH/3T3 cell lines (phospho-EGFR Y1068 AlphaLISA), EGFR WT; assay type: cell-based; details: engineered NIH/3T3 cells, read-out: NIH3T3 IC50 (μM) EGFR (WT)
Description: (§1) EGFR Target Modulation in Engineered NIH/3T3 Cell Lines Tissue Culture.
(§2) The cells were harvested with 0.05% Trypsin/EDTA (Hyclone #SH30236.01), re-suspended in 5% FBS/DMEM Pen/Strep without Puromycin and plated at 9,000 cells per well in 50 μl of media in a 384-well black plate with clear bottoms (Greiner #789068G). The cells were allowed to incubate overnight in a 37° C., 5% CO2 humidified tissue culture incubator. A 12-point test compound curve was prepared by serial diluting a 10 μM stock 1:3 in DMSO in a 384-well compound plate (Greiner #789201L). The serial diluted compounds were transferred to the plate containing cells by using a 50 nl Pin Head device (Perkin Elmer) and the cells were placed back in the incubator for 3 hours. Only the EGFR WT-expressing cells were induced with 50 ng/ml EGF (Preprotech #AF-100-15) for 5 minutes before lysis. […] The plates were shaken at 4° C. for 5 minutes with foil top at maximum speed. […] The plates were sealed with a foil top and frozen at −80° C. and thawed when needed.
(§3) The frozen aliquots were thawed and briefly centrifuged. All antibodies and beads were diluted in 1× AlphaLISA HiBlock Buffer (PE #AL004C). […] Goat anti-total EGFR (R&D Systems #AF231) was added and allowed to equilibrate for 1 hour at room temperature at 1 nM final concentration.
(§4) With these parameters, the IC50's for each compound in each cell line was calculated using non-linear curve fitting analysis.

[2] = target: human EGFR L858R (NIH/3T3 cells) (Homo sapiens, UniProt P00533, L858R); assay: EGFR target modulation in engineered NIH/3T3 cell lines (phospho-EGFR Y1068 AlphaLISA), EGFR L858R; assay type: cell-based; details: engineered NIH/3T3 cells, read-out: NIH3T3 IC50 (μM) EGFR (L858R)
Description: as §1, §2, §3, §4

[3] = target: human EGFR L858R/T790M (NIH/3T3 cells) (Homo sapiens, UniProt P00533, L858R/T790M); assay: EGFR target modulation in engineered NIH/3T3 cell lines (phospho-EGFR Y1068 AlphaLISA), EGFR L858R/T790M; assay type: cell-based; details: engineered NIH/3T3 cells, read-out: NIH3T3 IC50 (μM) EGFR (L858R/T790M)
Description: as §1, §2, §3, §4

[4] = EGFR (L858R/T790M) with 90 min pre-incubation, read-out: IC50 (μM) Column B
[5] = EGFR (L858R/T790M) with no pre-incubation, read-out: IC50 (μM) Column A

Sequence of human EGFR L858R (NIH/3T3 cells) (P00533 25-1210 L858R): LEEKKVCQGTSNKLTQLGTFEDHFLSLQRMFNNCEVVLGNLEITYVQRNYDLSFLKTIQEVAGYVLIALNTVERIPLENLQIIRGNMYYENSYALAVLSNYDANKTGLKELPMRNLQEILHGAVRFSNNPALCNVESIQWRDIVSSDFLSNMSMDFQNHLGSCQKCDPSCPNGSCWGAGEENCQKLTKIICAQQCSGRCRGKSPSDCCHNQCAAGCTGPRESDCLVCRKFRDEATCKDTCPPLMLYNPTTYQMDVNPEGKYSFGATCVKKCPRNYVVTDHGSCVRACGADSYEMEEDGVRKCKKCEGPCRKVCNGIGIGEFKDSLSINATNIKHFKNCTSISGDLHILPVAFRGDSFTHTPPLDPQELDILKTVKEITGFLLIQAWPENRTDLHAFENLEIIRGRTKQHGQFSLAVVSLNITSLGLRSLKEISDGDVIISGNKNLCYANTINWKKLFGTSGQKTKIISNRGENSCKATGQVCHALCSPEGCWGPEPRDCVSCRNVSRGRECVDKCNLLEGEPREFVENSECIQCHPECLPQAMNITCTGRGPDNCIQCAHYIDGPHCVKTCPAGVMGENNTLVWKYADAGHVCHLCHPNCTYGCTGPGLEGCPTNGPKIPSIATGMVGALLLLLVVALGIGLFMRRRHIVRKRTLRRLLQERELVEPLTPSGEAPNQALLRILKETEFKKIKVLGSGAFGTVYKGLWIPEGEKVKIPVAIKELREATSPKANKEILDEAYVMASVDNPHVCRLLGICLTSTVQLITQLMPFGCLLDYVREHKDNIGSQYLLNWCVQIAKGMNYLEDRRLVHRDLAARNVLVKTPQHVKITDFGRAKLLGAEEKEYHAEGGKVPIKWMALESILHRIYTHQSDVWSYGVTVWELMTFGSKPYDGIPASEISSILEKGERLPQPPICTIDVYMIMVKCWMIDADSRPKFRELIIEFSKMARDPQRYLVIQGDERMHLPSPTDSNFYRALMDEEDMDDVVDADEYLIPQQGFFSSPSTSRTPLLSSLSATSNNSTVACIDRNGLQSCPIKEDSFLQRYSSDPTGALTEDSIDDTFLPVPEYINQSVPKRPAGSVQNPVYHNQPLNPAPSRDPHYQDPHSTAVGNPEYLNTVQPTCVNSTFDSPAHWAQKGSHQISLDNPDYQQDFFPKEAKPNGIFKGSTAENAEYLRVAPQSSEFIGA
Sequence of human EGFR WT (NIH/3T3 cells, EGF-induced) (P00533 25-1210): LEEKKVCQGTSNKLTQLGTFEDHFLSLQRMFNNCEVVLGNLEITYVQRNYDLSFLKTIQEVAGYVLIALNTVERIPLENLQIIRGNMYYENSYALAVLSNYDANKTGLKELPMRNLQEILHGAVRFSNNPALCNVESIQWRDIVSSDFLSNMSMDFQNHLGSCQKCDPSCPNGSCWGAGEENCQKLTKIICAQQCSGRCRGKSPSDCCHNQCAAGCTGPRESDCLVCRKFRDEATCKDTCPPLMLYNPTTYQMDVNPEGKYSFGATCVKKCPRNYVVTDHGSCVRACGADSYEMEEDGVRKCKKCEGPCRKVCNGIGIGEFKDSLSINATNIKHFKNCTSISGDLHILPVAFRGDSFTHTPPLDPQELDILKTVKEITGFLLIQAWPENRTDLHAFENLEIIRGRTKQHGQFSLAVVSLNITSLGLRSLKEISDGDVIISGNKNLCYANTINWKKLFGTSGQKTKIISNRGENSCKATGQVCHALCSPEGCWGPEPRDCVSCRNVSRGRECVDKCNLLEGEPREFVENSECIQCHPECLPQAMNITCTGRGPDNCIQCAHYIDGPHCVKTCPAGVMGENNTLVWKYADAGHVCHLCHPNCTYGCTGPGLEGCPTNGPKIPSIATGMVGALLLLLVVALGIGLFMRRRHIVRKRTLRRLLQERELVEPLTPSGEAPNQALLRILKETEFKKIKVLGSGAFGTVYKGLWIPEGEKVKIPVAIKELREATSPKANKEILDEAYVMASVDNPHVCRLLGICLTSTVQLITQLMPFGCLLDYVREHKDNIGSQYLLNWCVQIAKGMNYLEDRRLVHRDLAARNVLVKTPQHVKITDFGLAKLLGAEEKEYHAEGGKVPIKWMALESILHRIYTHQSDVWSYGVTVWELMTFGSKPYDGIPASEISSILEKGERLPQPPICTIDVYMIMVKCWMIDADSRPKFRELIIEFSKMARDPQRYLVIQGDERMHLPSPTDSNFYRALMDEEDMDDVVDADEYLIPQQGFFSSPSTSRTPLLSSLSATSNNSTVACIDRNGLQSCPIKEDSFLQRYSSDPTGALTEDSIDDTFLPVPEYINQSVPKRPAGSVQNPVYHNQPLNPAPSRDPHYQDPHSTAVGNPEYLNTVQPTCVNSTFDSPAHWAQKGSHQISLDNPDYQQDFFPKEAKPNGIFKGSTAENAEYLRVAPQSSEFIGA
Sequence of human EGFR L858R/T790M (NIH/3T3 cells) (P00533 25-1210 T790M/L858R): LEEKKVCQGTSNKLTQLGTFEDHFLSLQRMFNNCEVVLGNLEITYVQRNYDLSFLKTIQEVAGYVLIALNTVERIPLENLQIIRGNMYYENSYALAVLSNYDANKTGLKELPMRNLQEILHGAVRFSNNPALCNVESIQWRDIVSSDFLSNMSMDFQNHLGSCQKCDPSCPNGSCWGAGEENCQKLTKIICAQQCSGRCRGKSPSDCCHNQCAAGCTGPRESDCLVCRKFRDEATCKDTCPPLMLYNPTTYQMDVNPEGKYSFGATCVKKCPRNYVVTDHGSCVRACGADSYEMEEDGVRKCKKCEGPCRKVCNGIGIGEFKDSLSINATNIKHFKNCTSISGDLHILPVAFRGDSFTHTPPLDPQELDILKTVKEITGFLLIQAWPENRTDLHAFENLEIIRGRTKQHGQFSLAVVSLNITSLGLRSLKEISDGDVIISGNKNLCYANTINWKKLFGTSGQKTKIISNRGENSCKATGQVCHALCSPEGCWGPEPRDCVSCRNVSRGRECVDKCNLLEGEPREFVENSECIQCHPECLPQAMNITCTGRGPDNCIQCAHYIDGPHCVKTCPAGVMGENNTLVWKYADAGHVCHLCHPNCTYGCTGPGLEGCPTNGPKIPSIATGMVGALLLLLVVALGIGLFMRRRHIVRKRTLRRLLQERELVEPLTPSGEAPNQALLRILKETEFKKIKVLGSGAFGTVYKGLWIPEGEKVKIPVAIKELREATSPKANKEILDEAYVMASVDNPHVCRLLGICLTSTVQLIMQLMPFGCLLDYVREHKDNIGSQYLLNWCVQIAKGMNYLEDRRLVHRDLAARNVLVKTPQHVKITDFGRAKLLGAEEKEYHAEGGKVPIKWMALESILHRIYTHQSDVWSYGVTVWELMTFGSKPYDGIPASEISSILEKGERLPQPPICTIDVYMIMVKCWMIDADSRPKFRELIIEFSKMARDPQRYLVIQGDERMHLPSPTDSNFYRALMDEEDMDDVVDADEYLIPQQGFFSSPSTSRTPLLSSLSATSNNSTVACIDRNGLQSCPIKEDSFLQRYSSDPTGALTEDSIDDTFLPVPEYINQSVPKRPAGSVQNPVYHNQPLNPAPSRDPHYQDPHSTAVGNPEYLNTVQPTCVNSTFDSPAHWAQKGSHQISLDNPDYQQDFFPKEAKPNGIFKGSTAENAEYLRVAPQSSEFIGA
T1 sequence (P00533 669-1210 T790M/L858R): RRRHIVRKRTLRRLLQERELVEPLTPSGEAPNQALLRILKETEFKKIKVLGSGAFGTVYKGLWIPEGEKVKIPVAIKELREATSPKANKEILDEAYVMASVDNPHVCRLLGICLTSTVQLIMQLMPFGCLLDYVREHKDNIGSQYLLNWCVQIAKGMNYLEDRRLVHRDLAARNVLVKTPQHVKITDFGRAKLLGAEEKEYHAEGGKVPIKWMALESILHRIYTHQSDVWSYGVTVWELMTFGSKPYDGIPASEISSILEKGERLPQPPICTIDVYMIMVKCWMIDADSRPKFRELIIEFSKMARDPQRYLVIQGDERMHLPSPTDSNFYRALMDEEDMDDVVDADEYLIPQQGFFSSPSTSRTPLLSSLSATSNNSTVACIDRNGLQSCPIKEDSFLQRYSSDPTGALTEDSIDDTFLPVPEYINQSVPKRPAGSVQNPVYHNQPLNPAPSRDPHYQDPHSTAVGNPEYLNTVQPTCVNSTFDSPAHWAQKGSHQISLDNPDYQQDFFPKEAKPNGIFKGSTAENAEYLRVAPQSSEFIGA

Structure (SMILES) | IC50 (EGFR(L858R/T790M); [4]) | IC50 (EGFR(L858R/T790M); [5]) | IC50 [1] | IC50 [2] | IC50 [3]
C/C=C/C(=O)N1CCCCC(n2c(NC(=O)c3cccc(C(F)(F)F)c3)nc3cccc(C)c32)C1 (centres unmarked) [Example 17-20] | 0.032 µM | 0.43 µM | > 10 µM | 0.75 µM | 0.073 µM
Cc1cccc2nc(NC(=O)c3ccccc3F)n(C3CCCCN(C(=O)/C=C/CN(C)C)C3)c12 (centres unmarked) [Example 17-3] | < 0.001 µM | 0.026 µM | 0.86 µM | 0.034 µM | 0.015 µM
C=CC(=O)N1CCCCC(n2c(NC(=O)c3ccccc3)nc3cccc(-c4nc(C)no4)c32)C1 (centres unmarked) [Example 17-138] | 0.009 µM | 0.147 µM | > 10 µM | 0.45 µM | 0.067 µM
C=CC(=O)N1CCCC[C@@H](n2c(NC(=O)c3cccc(C(F)(F)F)c3)nc3ccccc32)C1 [Example 17-13] | < 0.001 µM | 0.006 µM | 0.43 µM | 0.008 µM | 0.001 µM
Cc1cccc2nc(NC(=O)c3ncccn3)n(C3CCCCN(C(=O)/C=C/CN(C)C)C3)c12 (centres unmarked) [Example 17-36] | 0.35 µM | 10.6 µM | > 10 µM | 3.5 µM | 2.96 µM
Cc1cccc2nc(NC(=O)c3cccnc3)n(C3CCCCN(C(=O)/C=C/CN(C)C)C3)c12 (centres unmarked) [Example 17-23] | < 0.001 µM | 0.003 µM | 0.149 µM | 0.004 µM | 0.003 µM
C=CC(=O)N1CCCC[C@@H](n2c(NC(=O)c3ccnc(C)c3)nc3cc(CN4CC[C@H](O)C4)cc(C)c32)C1 [Example 17-146] | < 0.001 µM | 0.002 µM | 0.137 µM | 0.003 µM | 0.004 µM
C=CC(=O)N1CCCC[C@@H](n2c(NC(=O)c3ccccc3)nc3cc(COCCOC)cc(C)c32)C1 [Example 17-128] | < 0.001 µM | 0.007 µM | 0.186 µM | 0.006 µM | 0.002 µM
C=CC(=O)N1CCCC(n2c(NC(=O)c3cccc(C(F)(F)F)c3)nc3ccncc32)C1 (centres unmarked) [Example 17-9] | 0.218 µM | 4.1 µM | > 10 µM | 8.6 µM | 0.194 µM
C=CC(=O)N1CCCCC(n2c(NC(=O)c3ccccc3)nc3cccc(C(=O)NCCC(=O)O)c32)C1 (centres unmarked) [Example 17-136] | 0.03 µM | 1.76 µM | 8.2 µM | > 10 µM | 6.5 µM
C=CC(=O)N1CCCCC(n2c(NC(=O)c3ccccc3)nc3cccc(C(=O)N4C[C@@H](O)[C@H](O)C4)c32)C1 (some centres unmarked) [Example 17-140] | 0.043 µM | 0.94 µM | 7.9 µM | 1.64 µM | 0.181 µM
CC1=C(C(=O)N2CCCC[C@@H](n3c(NC(=O)c4ccnnc4)nc4cccc(C)c43)C2)S(=O)(=O)CCO1 [Example 17-88] | 0.04 µM | 0.39 µM | 8.4 µM | 0.158 µM | 0.209 µM
C=CC(=O)N1CCC(n2c(NC(=O)c3cccc(C(F)(F)F)c3)nc3cc(C)ccc32)C1 (centres unmarked) [Example 17-98] | 0.058 µM | 0.84 µM | – | – | –
Cc1cc(C(=O)Nc2nc3cccc(Cl)c3n2[C@@H]2CCCCN(C(=O)/C=C/CN3CC[C@H](O)C3)C2)ccn1 [Example 3-7] | < 0.001 µM | 0.006 µM | 0.89 µM | 0.009 µM | 0.021 µM
Cc1cccc2nc(NC(=O)c3cccc(F)c3)n(C3CCCCN(C(=O)/C=C/CN(C)C)C3)c12 (centres unmarked) [Example 17-21] | < 0.001 µM | 0.005 µM | 0.32 µM | 0.007 µM | 0.004 µM
C=CC(=O)N1CCCCC(n2c(NC(=O)c3ccccc3)nc3cccc(C(=O)NCC(=O)OC)c32)C1 (centres unmarked) [Example 17-135] | 0.008 µM | 0.62 µM | > 10 µM | 0.4 µM | 0.045 µM
C=CC(=O)N1CCCC(n2c(NC(=O)c3cccc(C(F)(F)F)c3)nc3c2CN(C(=O)OC)CC3)C1 (centres unmarked) [Example 17-170] | 0.006 µM | 0.66 µM | > 10 µM | 0.39 µM | 0.01 µM
C/C=C/C(=O)N1CC(n2c(NC(=O)c3cccc(C(F)(F)F)c3)nc3cc(C)ccc32)C1 [Example 17-101] | 0.193 µM | 0.99 µM | – | – | –
C=CC(=O)N1CCC(n2c(NC(=O)c3cccc(C(F)(F)F)c3)nc3cc(C)ccc32)CC1 [Example 17-97] | 0.4 µM | 0.204 µM | – | – | –
Cc1cccc2nc(NC(=O)c3ccnc(-n4cnnn4)c3)n(C3CCCCN(C(=O)/C=C/CN(C)C)C3)c12 (centres unmarked) [Example 17-60] | – | – | 0.012 µM | 0.002 µM | 0.002 µM
Cc1cccc2nc(NC(=O)c3ccnc(C(F)(F)F)c3)n([C@@H]3CCCCN(C(=O)/C=C/CN(C)C)C3)c12 [8, 21-2] | < 0.001 µM | < 0.001 µM | – | – | –
C=CC(=O)N1CCC[C@@H](n2c(NC(=O)c3cccc(C(F)(F)F)c3)nc3cc(C)ccc32)C1 [17-105, 21-6] | 0.002 µM | 0.1 µM | – | – | –
C=CC(=O)N1CCC[C@H](n2c(NC(=O)c3cccc(C(F)(F)F)c3)nc3cc(C)ccc32)C1 [4, 21-5] | 0.071 µM | 0.41 µM | – | – | –
Cc1cccc2nc(NC(=O)c3ccn4cncc4c3)n(C3CCCCN(C(=O)/C=C/CN(C)C)C3)c12 (centres unmarked) [Example 17-63] | < 0.001 µM | 0.003 µM | 0.038 µM | 0.003 µM | –
Cc1ncccc1C(=O)Nc1nc2cccc(C)c2n1C1CCCCN(C(=O)/C=C/CN(C)C)C1 (centres unmarked) [Example 17-62] | 0.006 µM | 0.14 µM | 2.5 µM | 0.234 µM | –
C=CC(=O)N1CC(n2c(NC(=O)c3cccc(C(F)(F)F)c3)nc3cc(C)ccc32)C1 [Example 17-99] | 0.097 µM | 1.22 µM | – | – | –
C=CC(=O)N1CCCC(n2c(NC(=O)c3cccc(C(F)(F)F)c3)nc3cc(C)ccc32)C1 (centres unmarked) [Example 17-100] | – | – | – | 0.34 µM | 0.026 µM
C=CC(=O)N1CCCC(n2c(NC(=O)c3cccc(C(F)(F)F)c3)nc3cc(C)ccc32)CC1 (centres unmarked) [Example 17-107] | 0.38 µM | 0.32 µM | – | – | –
Cc1cccc2nc(NC(=O)c3cn4ccsc4n3)n(C3CCCCN(C(=O)/C=C/CN(C)C)C3)c12 (centres unmarked) [Example 17-51] | 0.048 µM | 1.95 µM | – | 0.47 µM | 0.65 µM
